Assay results reported in the NIST ThermoML archive (doi:10.1021/acs.jced.7b01101).
Numbers after ± are expanded uncertainties.

Columns and labels:
[1] = 100 kPa, Liquid; for viscosity: Concentric cylinders viscometry
[2] = refractive index (Na D-line) (dimensionless); details: 293.15 K; 100 kPa; Liquid; Standard Abbe refractometry
[3] = wn = mass fraction of the nth substance listed; details: 100 kPa, Liquid; for viscosity / mass density: 298.15 K; for viscosity: Concentric cylinders viscometry; for electrical conductivity: 293.15 K, Alternating current cell with electrodes; for mass density: Vibrating tube method
[4] = refractive index (Na D-line) (dimensionless); wn = mass fraction of the nth substance listed; details: 293.15 K, 100 kPa, Liquid, Standard Abbe refractometry
[5] = an = ratio of the nth substance listed; details: 100 kPa, Liquid; for electrical conductivity: 293.15 K, Alternating current cell with electrodes; for viscosity / mass density: 298.15 K; for viscosity: Concentric cylinders viscometry; for mass density: Vibrating tube method
[6] = refractive index (Na D-line) (dimensionless); an = ratio of the nth substance listed; details: 293.15 K, 100 kPa, Liquid, Standard Abbe refractometry

O [water]
Details | viscosity [mPa·s]
[1], 298.15 K | 0.89 ± 0.13

Details | refractive index
[2] | 1.333 ± 0.002

O [water] + NCCO
w2 = 0
Details | refractive index | viscosity [mPa·s]
[3] | – | 0.89 ± 0.13
[4] | 1.333 ± 0.002 | –

NCCO [2-aminoethan-1-ol] + O
Details | electrical conductivity, [3] [S/m] | electrical conductivity, [5] [S/m] | mass density, [3] [kg/m3] | mass density, [5] [kg/m3] | refractive index, [4] | refractive index, [6] | viscosity, [3] [mPa·s] | viscosity, [5] [mPa·s]
a2 = 1.5 | – | 0.046 ± 0.005 | – | 1018.3 ± 1 | – | 1.3854 ± 0.002 | – | 3.5 ± 0.53
a2 = 2.333 | – | 0.072 ± 0.007 | – | 1012.9 ± 1 | – | 1.372 ± 0.002 | – | 2.6 ± 0.39
a2 = 4 | – | 0.102 ± 0.01 | – | 1007.1 ± 1 | – | 1.3587 ± 0.002 | – | 1.7 ± 0.26
w1 = 0.2 | 0.102 ± 0.012 | – | 1007.1 ± 1.5 | – | 1.3587 ± 0.0033 | – | 1.7 ± 0.28 | –
w1 = 0.3 | 0.072 ± 0.0091 | – | 1012.9 ± 1.5 | – | 1.3718 ± 0.0033 | – | 2.6 ± 0.43 | –
w1 = 0.4 | 0.0461 ± 0.0063 | – | 1018.3 ± 1.4 | – | 1.3852 ± 0.0033 | – | 3.5 ± 0.6 | –
w1 = 0.5 | 0.029 ± 0.0045 | – | 1022.1 ± 1.2 | – | 1.3975 ± 0.0034 | – | 5.4 ± 1 | –
w1 = 0.6 | 0.0111 ± 0.0023 | – | 1025.1 ± 1.1 | – | 1.4126 ± 0.0033 | – | 9.67 ± 1.6 | –
w1 = 0.7 | 0.0089 ± 0.0012 | – | 1026.5 ± 1 | – | 1.423 ± 0.0032 | – | 12.26 ± 2.1 | –
w1 = 0.8 | 0.0034 ± 0.0007 | – | 1024.7 ± 1.2 | – | 1.4368 ± 0.0029 | – | 20.39 ± 3.1 | –
w1 = 0.9 | 0.0032 ± 0.0003 | – | 1020.4 ± 1.6 | – | 1.4444 ± 0.0028 | – | 19.45 ± 2.9 | –
w1 = 1 | 0.0031 ± 0.0003 | – | 1012 ± 1 | – | 1.456 ± 0.002 | – | 18.75 ± 2.8 | –

NCCO [2-aminoethan-1-ol]
[1]
Details | electrical conductivity [S/m] | mass density [kg/m3]
293.15 K, Alternating current cell with electrodes | 0.0031 ± 0.0003 | –
298.15 K, Vibrating tube method | – | 1012 ± 1

Details | viscosity [mPa·s]
[1], 298.15 K | 18.75 ± 2.8

Details | refractive index
[2] | 1.456 ± 0.002
